Like-named read-outs stand apart in the source and are kept apart here.

The results in this text go back to patent publication US5663417A, “Carbocyclic sulfonamides” (Ono Pharmaceutical Co., Ltd., priority 1993, dated 1997).

Data set [1] can be described thus: acute toxicity (LD50) in mouse by oral administration. The following applies: in vivo. The protocol: For example, the acute toxicity (LD50) in mouse of 6-[(1S, 2R, 3R, 4R)-3-(4-bromophenylsulfonylaminomethyl)bicyclo[2.2.1]heptan-2-yl]-5Z-hexenoic acid (it is described as example 1(y) in specification of the U.S. Pat. No. 5,168,101.) was more than 300 mg/kg by oral administration.

Data set [2] deals with prostaglandin E2 receptor. The data set is described as follows: inhibition of [^3 H]-PGE2 receptor binding in rat uterus membrane fraction. The following applies: 5 nM [^3 H]-PGE2, rat uterus crude membrane fraction, pH 6.0, 1 hour at room temperature, read-out: IC50, inhibitory effects of PGE2 receptor binding in rat. The method, then:
(i) The measurement of the inhibition of [^3 H]-PGE2 receptor binding
The standard assay mixture contained 5 nM [^3 H]-PGE2 (50 μl), test compounds (50 μl) and crude membrane fraction obtained from rat uterus (1.2 mg protein/ml, 100 μl) in a final volume of 200 μl (10 mM potassium phosphate pH 6.0, 0.1M NaCl (buffer A)). After incubation for 1 hour at room temperature, the reaction was stopped by the addition of 3 ml of ice-cold buffer A, after which the mixture was rapidly filtered through a Whatman GF/B glass filter. The radioactivity associated with the filter was measured in ACS II (Amarsham) by liquid scintillation counting. Percent inhibition of specific [^3 H]-PGE2 binding or IC50 value, the concentration required to compete with ^3 H-PGE2 receptor binding by 50% were calculated.

Data set [3] relates to contraction of rat uterus induced by PGE2. The data set is described as follows: inhibitory effects of compounds on contraction of rat uterus induced by PGE2. Also on record: species or system rat (Sprague Dawley). The following applies: contraction induced by 0.3 μM PGE2; isolated pseudo pregnant rat uterus strips, 28° C.; compound concentration not given. The protocol:
(ii) The inhibitory effects of compounds on contraction of rat uterus induced by PGE2
Pseudo pregnant rat uterus (Sprague Dawley, 200-300 g, induced by oestradiol […] s.c. 18-24 hours before experiment) was isolated and longitudinal strips of 1-1.5 cm were set up in Locke-Ringer solution containing low Ca^2+, aerated with mixed gas (oxygen 95%+carbon dioxide 5%) at 28° C.

By LD50 is commonly meant the dose expected to kill half of the subjects tested. A lower LD50 goes with greater toxicity. A word on the IC50: it is the concentration that inhibits the measured activity by half. On to `O=C(O)CCC/C=C\[C@@H]1[C@H]2CC[C@H](C2)[C@H]1CNS(=O)(=O)c1ccc(Br)cc1` [U.S. Pat. No. 5168101 1 (y), 6-[(1S, 2R, 3R, 4R)-3-(4-bromophenylsulfonylaminomethyl)bicyclo[2.2.1]heptan-2-yl]-5Z-hexenoic acid], for which the LD50 in data set [1] was > 300 mg/kg. Moreover, the IC50 in data set [2] (Table I) was 620 nM.

With `CC1(C)[C@H]2C[C@H](NS(=O)(=O)/C=C/c3ccccc3)[C@@H](C/C=C\CCCC(=O)O)[C@@H]1C2` [6 (12), 7-[(1S, 2S, 3S, 5R)-3-(2-phenylvinylsulfonylamino)-6,6-dimethylbicyclo[3.1.1]heptan-2-yl]-5Z-heptenoic acid], in data set [2] (Table II), the IC50 was < 10 nM. Moreover, the “inhibition of the contraction of rat uterus induced by PGE2” value in data set [3] is reported as “completely inhibited”.

Regarding `O=C(O)CCCC=CC1C2C=CC(C2)C1CNS(=O)(=O)c1ccc(Br)cc1` (stereo not shown) [U.S. Pat. No. 5168101 1 (bb)], in data set [2] (Table I), the IC50 stood at 820 nM.

On to `O=C(O)CCC/C=C\CC1CCCCC1NS(=O)(=O)c1ccc(Br)cc1` (stereo not shown) [5 (e), 7-[2-(4-bromophenylsulfonylamino)cyclohexyl]-5Z-heptenoic acid], for which, in data set [2] (Table I), the half-maximal inhibitory concentration (IC50) turned out to be 60 nM.

As for `CCCCCCS(=O)(=O)N[C@H]1C[C@H]2C[C@@H]([C@@H]1C/C=C\CCCC(=O)O)C2(C)C` [3 (k), 7-[(1S,2S,3S,5R)-3-hexylsulfonylamino-6,6-dimethylbicyclo[3.1.1]heptan-2-yl]-5Z-heptenoic acid], the IC50 in data set [2] (Table I) stood at 25 nM.

On to `CCCCS(=O)(=O)N[C@H]1C[C@H]2C[C@@H]([C@@H]1C/C=C\CCCC(=O)O)C2(C)C` [3 (j), 7-[(1S,2S,3S,5R)-3-butylsulfonylamino-6,6-dimethylbicyclo[3.1.1]heptan-2-yl]-5Z-heptenoic acid], for which the IC50 in data set [2] (Table I) came to 5000 nM.

As for `Cc1ccc(S(=O)(=O)NCC2C3C=CC(C3)C2C=CCCCC(=O)O)cc1` (stereo not shown) [U.S. Pat. No. 5168101 1 (aa)], the IC50 in data set [2] (Table I) was determined as 2000 nM.

Consider `CC1(C)[C@H]2C[C@H](NS(=O)(=O)CCc3ccccc3)[C@@H](C/C=C\CCCC(=O)O)[C@@H]1C2` [3 (m), 7-[(1S,2S,3S,5R)-3-(2-phenylethyl)sulfonylamino-6,6-dimethylbicyclo[3.1.1]heptan-2-yl]-5Z-heptenoic acid], for which, in data set [2] (Table I), the half-inhibitory concentration (IC50) came out at 5.4 nM.

With `Cc1ccc(S(=O)(=O)N[C@H]2[C@H]3CC[C@H](C3)[C@@H]2C/C=C\CCCC(=O)O)cc1` [Example 4, 7-[(1R,2S,3S,4S)-3-tosylaminobicyclo[2.2.1]heptan-2-yl]-5Z-heptenoic acid], in data set [2] (Table I), the IC50 was determined as 3400 nM.

`CC1(C)[C@H]2C[C@H](NS(=O)(=O)c3ccc(Br)cc3)[C@@H](C/C=C\CCCC(=O)O)[C@@H]1C2` [Example 2, 7-[(1S,2S,3S,5R)-3-(4-bromophenyl)sulfonylamino-6,6-dimethylbicyclo [3.1.1]heptan-2-yl]-5Z-heptenoic acid]: the concentration for half-maximal inhibition (IC50) in data set [2] (Table I) was 440 nM.

With `O=C(O)CCC/C=C\[C@@H]1CCC[C@@H](NS(=O)(=O)c2ccc(Br)cc2)C1` (relative stereo) [U.S. Pat. No. 5168101 1 (l)], in data set [2] (Table I), the IC50 stood at 2400 nM.
